Experimental data published in patent US20120040955A1 (priority 2009, published 2012).

Key:
JAK2 = target: T1, JAK2 (Homo sapiens, UniProt O60674); experiment: kinobeads assay (competition with affinity matrix in mixed Molt4/Ramos cell lysate, dot blot detection), JAK2; assay type: binding; settings: activity level
T1 construct: endogenous in cells; host or cells: Mixed Molt4 / Ramos cell lysate (1:2)
Description: (§1) The compounds of the present invention as described in the previous examples were tested in a kinobeads assay as described for ZAP-70 (WO-A 2007/137867). Briefly, test compounds (at various concentrations) and the affinity matrix with the immobilized aminopyrido-pyrimidine ligand 24 were added to cell lysate aliquots and allowed to bind to the proteins in the lysate sample. After the incubation time the beads with captured proteins were separated from the lysate. Bound proteins were then eluted and the presence of, JAK2 and JAK3 was detected and quantified using specific antibodies in a dot blot procedure and the Odyssey infrared detection system. Dose response curves for individual kinases were generated and IC50 values calculated. Kinobeads assays for ZAP-70 (WO-A 2007/137867) and for kinase selectivity profiling (WO-A 2006/134056) have been previously described.
(§2) 5× DP buffer: 250 mM Tris-HCl pH 7.4, 25% Glycerol, 7.5 mM MgCl2, 750 mM NaCl, 5 mM Na3VO4; filter the 5× DP buffer through a 0.22 μm filter and store in aliquots at −80° C. The 5× DP buffer is diluted with H2O to 1× DP buffer containing 1 mM DTT and 25 mM NaF.
(§3) Stock solutions of test compounds were prepared in DMSO. In a 96 well plate 30 μl solution of diluted test compounds at 5 mM in DMSO were prepared. Starting with this solution a 1:3 dilution series (9 steps) was prepared. For control experiments (no test compound) a buffer containing 2% DMSO was used.
(§4) Molt4 cells (ATCC catalogue number CRL-1582) and Ramos cells (ATCC catalogue number CRL-1596) were grown in 1 litre Spinner flasks (Integra Biosciences, #182101) in suspension in RPMI 1640 medium (Invitrogen, #21875-034) supplemented with 10% Fetal Bovine Serum (Invitrogen) at a density between 0.15×10^6 and 1.2×10^6 cells/ml. Cells were harvested by centrifugation, washed once with 1× PBS buffer (Invitrogen, #14190-094) and cell pellets were frozen in liquid nitrogen and subsequently stored at −80° C. Cells were homogenized in a Potter S homogenizer in lysis buffer: 50 mM Tris-HCl, 0.8% NP40, 5% glycerol, 150 mM NaCl, 1.5 mM MgCl2, 25 mM NaF, 1 mM sodium vanadate, 1 mM DTT, pH 7.5. One complete EDTA-free tablet (protease inhibitor cocktail, Roche Diagnostics, 1873580) per 25 ml buffer was added. The material was dounced 10 times using a mechanized POTTER S, transferred to 50 ml falcon tubes, incubated for 30 minutes on ice and spun down for 10 min at 20,000 g at 4° C. (10,000 rpm in Sorvall SLA600, precooled). The supernatant was transferred to an ultracentrifuge (UZ)-polycarbonate tube (Beckmann, 355654) and spun for 1 hour at 100.000 g at 4° C. (33.500 rpm in Ti50.2, precooled). The supernatant was transferred again to a fresh 50 ml falcon tube, the protein concentration was determined by a Bradford assay (BioRad) and samples containing 50 mg of protein per aliquot were prepared. The samples were immediately used for experiments or frozen in liquid nitrogen and stored frozen at −80° C.
(§5) Cell lysate (approximately 50 mg protein per plate) was thawed in a water bath at room temperature and then kept on ice. To the thawed cell lysate 1× DP 0.8% NP40 buffer containing protease inhibitors (1 tablet for 25 ml buffer; EDTA-free protease inhibitor cocktail; Roche Diagnostics 1873580) was added in order to reach a final protein concentration of 5 mg/ml total protein. The diluted cell lysate was stored on ice. Mixed Molt4/Ramos lysate was prepared by combining one volume of Molt4 lysate and two volumes of Ramos lysate (ratio 1:2).
(§6) To a 96 well filter plate (Multiscreen HTS, BV Filter Plates, Millipore #MSBVN1250) were added per well: 100 μl affinity matrix (3% beads slurry), 3 μl of compound solution, and 50 μl of diluted lysate. Plates were sealed and incubated for three hours in a cold room on a plate shaker (Heidolph tiramax 1000) at 750 rpm. Afterwards the plate was washed twice with 230 μl washing buffer (1× DP 0.4% NP40). […]

JAK3 = target: T2, JAK3 (Homo sapiens, UniProt P52333); experiment: kinobeads assay (competition with affinity matrix in mixed Molt4/Ramos cell lysate, dot blot detection), JAK3; assay type: binding; settings: activity level
T2 construct: endogenous in cells; host or cells: Mixed Molt4 / Ramos cell lysate (1:2)
T2 sequence (P52333 1-1124): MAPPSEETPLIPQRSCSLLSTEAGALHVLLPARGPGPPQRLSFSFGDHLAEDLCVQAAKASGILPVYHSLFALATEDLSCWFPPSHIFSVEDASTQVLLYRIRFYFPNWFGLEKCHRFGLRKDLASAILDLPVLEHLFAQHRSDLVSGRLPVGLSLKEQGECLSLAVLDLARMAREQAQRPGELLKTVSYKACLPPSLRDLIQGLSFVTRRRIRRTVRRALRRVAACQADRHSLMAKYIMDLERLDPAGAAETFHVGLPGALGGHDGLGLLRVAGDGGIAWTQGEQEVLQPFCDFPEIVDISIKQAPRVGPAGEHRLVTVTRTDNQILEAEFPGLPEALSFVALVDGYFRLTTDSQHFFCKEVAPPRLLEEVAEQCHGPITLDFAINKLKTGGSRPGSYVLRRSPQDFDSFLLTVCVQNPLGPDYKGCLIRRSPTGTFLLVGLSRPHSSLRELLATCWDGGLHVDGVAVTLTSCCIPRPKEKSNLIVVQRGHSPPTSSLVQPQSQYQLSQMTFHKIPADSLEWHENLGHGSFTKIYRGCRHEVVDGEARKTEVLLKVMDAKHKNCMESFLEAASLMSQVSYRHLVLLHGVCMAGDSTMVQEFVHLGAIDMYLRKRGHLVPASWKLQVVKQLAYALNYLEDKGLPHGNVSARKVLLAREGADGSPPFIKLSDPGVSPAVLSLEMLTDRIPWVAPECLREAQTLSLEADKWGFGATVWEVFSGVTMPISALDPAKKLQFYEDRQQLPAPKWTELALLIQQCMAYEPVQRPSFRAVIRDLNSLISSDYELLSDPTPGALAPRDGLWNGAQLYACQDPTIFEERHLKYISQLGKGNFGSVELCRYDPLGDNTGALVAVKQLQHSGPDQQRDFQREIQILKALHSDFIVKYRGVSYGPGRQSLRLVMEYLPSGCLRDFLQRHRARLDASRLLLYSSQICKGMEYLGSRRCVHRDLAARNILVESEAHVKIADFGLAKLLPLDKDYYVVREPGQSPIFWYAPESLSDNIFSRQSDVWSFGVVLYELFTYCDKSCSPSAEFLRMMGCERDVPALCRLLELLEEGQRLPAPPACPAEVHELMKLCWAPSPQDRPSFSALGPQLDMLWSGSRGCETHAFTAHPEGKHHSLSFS
Description: as §1, §2, §3, §4, §5, §6

T1 sequence (O60674 whole entry): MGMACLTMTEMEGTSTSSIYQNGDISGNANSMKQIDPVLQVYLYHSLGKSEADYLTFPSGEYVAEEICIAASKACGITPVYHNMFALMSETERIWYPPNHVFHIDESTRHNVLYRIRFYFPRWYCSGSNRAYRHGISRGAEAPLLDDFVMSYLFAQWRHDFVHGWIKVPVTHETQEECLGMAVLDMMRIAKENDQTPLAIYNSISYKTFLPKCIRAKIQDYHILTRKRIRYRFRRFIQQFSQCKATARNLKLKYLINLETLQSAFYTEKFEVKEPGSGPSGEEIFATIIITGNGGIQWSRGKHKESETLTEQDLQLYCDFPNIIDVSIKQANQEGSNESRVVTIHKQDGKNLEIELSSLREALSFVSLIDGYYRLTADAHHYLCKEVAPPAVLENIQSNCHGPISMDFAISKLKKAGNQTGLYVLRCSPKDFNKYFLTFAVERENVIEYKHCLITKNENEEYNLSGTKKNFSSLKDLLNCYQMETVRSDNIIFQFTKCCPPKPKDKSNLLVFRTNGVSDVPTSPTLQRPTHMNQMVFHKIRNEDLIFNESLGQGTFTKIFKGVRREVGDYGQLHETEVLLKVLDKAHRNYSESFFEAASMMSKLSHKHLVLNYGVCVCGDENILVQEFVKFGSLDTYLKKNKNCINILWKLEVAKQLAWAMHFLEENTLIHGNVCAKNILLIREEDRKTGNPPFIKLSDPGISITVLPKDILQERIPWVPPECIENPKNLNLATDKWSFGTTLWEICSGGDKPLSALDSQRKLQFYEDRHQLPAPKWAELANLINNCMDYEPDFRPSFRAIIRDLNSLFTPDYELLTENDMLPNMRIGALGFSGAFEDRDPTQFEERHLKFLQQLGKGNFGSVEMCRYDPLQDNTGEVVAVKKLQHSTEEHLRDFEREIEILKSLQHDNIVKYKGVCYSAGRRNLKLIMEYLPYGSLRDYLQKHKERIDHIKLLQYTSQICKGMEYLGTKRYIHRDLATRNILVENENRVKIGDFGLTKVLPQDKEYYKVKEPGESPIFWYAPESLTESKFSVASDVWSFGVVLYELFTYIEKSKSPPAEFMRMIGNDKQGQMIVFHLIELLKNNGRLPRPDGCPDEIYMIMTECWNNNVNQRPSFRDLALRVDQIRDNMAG

How did the IC50 (JAK2) turn out when CS(=O)(=O)Nc1ccccc1Nc1nc(Nc2cc(C(=O)NCC#N)ccc2F)ncc1Cl [Example 25] was run?
Its IC50 is 1000 to 10000 nM.

And the IC50 (JAK3)?
Its IC50 is under 100 nM.

CCN(CC)C(=O)c1ccc(F)c(Nc2ncc(Cl)c(Nc3ccccc3NS(=O)(=O)CC)n2)c1 [Example 40, 3-(5-chloro-4-(2-(ethylsulfonamido)phenylamino)pyrimidin-2-ylamino)-N,N-diethyl-4-fluorobenzamide] was tested. Which IC50 (JAK2) did it give?
The IC50 was over 10000 nM.

And the IC50 (JAK3)?
Its IC50 is under 100 nM.

CCNC(=O)c1ccc(Nc2ncc(Cl)c(Nc3cccc(F)c3NS(C)(=O)=O)n2)c(F)c1 [Example 60, 4-((5-chloro-4-((3-fluoro-2-(methylsulfonamido)phenyl)amino)pyrimidin-2-yl)amino)-N-ethyl-3-fluorobenzamide] was tested. Which IC50 (JAK2) did it give?
The IC50 was over 10000 nM.

What about the IC50 (JAK3) of the same compound?
Its IC50 is under 100 nM.

How did the IC50 (JAK3) turn out when CCN(CC)C(=O)c1ccc(F)c(Nc2ncc(Cl)c(Nc3ccccc3NS(C)(=O)=O)n2)c1 [Example 19, 3-(5-chloro-4-(2-(methylsulfonamido)phenylamino)pyrimidin-2-ylamino)-N,N-diethyl-4-fluorobenzamide] was run?
Its IC50 is 100 to 1000 nM.

How did the IC50 (JAK2) turn out when CS(=O)(=O)Nc1ccccc1Nc1nc(Nc2cc(C(=O)N3CCCCC3)ccc2F)ncc1Cl [Example 17, N-(2-(5-chloro-2-(2-fluoro-5-(piperidine-1-carbonyl)phenylamino)pyrimidin-4-ylamino)phenyl)methanesulfonamide] was run?
Its IC50 is 1000 to 10000 nM.

What about the IC50 (JAK3) of the same compound?
The IC50 was under 100 nM.

Which IC50 (JAK2) does the source give for Cc1cccc(Nc2nc(Nc3cc(-n4cnnn4)ccc3F)ncc2Cl)c1NS(C)(=O)=O [Example 9, N-(2-(5-chloro-2-(2-fluoro-5-(1H-tetrazol-1-yl)phenylamino)pyrimidin-4-ylamino)-6-methylphenyl)methanesulfonamide] here?
The IC50 was 100 to 1000 nM.

And the IC50 (JAK3)?
The IC50 was under 100 nM.

How did the IC50 (JAK2) turn out when Cc1cccc(Nc2nc(Nc3cc(-n4cnnn4)ccc3F)ncc2F)c1NS(C)(=O)=O [Example 4, N-(2-(5-fluoro-2-(2-fluoro-5-(1H-tetrazol-1-yl)phenylamino)pyrimidin-4-ylamino)-6-methylphenyl)methanesulfonamide] was run?
The IC50 was over 10000 nM.

What about the IC50 (JAK3) of the same compound?
The IC50 was under 100 nM.

COc1ccc(Nc2nc(Nc3cc(-n4cnnn4)ccc3F)ncc2F)c(NS(C)(=O)=O)c1 [Example 5, N-(2-(5-fluoro-2-(2-fluoro-5-(1H-tetrazol-1-yl)phenylamino)pyrimidin-4-ylamino)-5-methoxyphenyl)methanesulfonamide] was tested. Which IC50 (JAK2) did it give?
The IC50 was 1000 to 10000 nM.

What about the IC50 (JAK3) of the same compound?
Its IC50 is under 100 nM.

Which IC50 (JAK2) does the source give for CS(=O)(=O)Nc1ccccc1Nc1nc(Nc2ccc(C#N)cc2F)ncc1Cl [Example 26, N-(2-(5-chloro-2-(4-cyano-2-fluorophenylamino)pyrimidin-4-ylamino)phenyl)methanesulfonamide] here?
Its IC50 is over 10000 nM.

What about the IC50 (JAK3) of the same compound?
Its IC50 is 100 to 1000 nM.

CN(c1ccccc1Nc1nc(Nc2cc(-n3cnnn3)ccc2F)ncc1F)S(C)(=O)=O [Example 13, N-(2-(5-fluoro-2-(2-fluoro-5-(1H-tetrazol-1-yl)phenylamino)pyrimidin-4-ylamino)phenyl)-N-methylmethanesulfonamide] was tested. Which IC50 (JAK2) did it give?
The IC50 was 100 to 1000 nM.

What about the IC50 (JAK3) of the same compound?
Its IC50 is under 100 nM.

Which IC50 (JAK2) does the source give for CS(=O)(=O)Nc1ccccc1Nc1nc(Nc2cc(C(N)=O)ccc2F)ncc1Cl [Example 18, 3-(5-chloro-4-(2-(methylsulfonamido)phenylamino)pyrimidin-2-ylamino)-4-fluorobenzamide] here?
Its IC50 is over 10000 nM.

What about the IC50 (JAK3) of the same compound?
Its IC50 is under 100 nM.

CS(=O)(=O)Nc1ccccc1Nc1nc(Nc2cc(C(=O)NCCO)ccc2F)ncc1Cl [Example 22, 3-(5-chloro-4-(2-(methylsulfonamido)phenylamino)pyrimidin-2-ylamino)-4-fluoro-N-(2-hydroxyethyl)benzamide] was tested. Which IC50 (JAK2) did it give?
Its IC50 is 1000 to 10000 nM.

What about the IC50 (JAK3) of the same compound?
The IC50 was under 100 nM.

Which results are given for CS(=O)(=O)Nc1ccccc1Nc1nc(Nc2cc(-n3cnnn3)ccc2F)ncc1Cl [Example 7, N-(2-(5-chloro-2-(2-fluoro-5-(1H-tetrazol-1-yl)phenylamino)pyrimidin-4-ylamino)phenyl)methanesulfonamide]?
IC50 (JAK2): 100 to 1000 nM; IC50 (JAK3): < 100 nM

CS(=O)(=O)Nc1ccccc1Nc1nc(Nc2cc(F)c(C(=O)NC3CC3)cc2F)ncc1Cl [Example 57, 4-((5-chloro-4-((2-(methylsulfonamido)phenyl)amino)pyrimidin-2-yl)amino)-N-cyclopropyl-2,5-difluorobenzamide] was tested. Which IC50 (JAK2) did it give?
The IC50 was over 10000 nM.

And the IC50 (JAK3)?
Its IC50 is under 100 nM.

How did the IC50 (JAK3) turn out when CS(=O)(=O)Nc1ccccc1Nc1nc(Nc2cc(C(=O)N3CCC3)ccc2F)ncc1Cl [Example 20, N-(2-(2-(5-(azetidine-1-carbonyl-2-fluorophenylamino))-5-chloropyrimidin-4-ylamino)phenyl)methanesulfonamide] was run?
The IC50 was under 100 nM.

CCS(=O)(=O)Nc1ccccc1Nc1nc(Nc2cc(C#N)ccc2F)ncc1Cl [Example 43, N-(2-(5-chloro-2-(5-cyano-2-fluorophenylamino)pyrimidin-4-ylamino)phenyl)ethanesulfonamide] was tested. Which IC50 (JAK2) did it give?
Its IC50 is over 10000 nM.

And the IC50 (JAK3)?
The IC50 was 100 to 1000 nM.

For CCNC(=O)c1ccc(Nc2ncc(Cl)c(Nc3ccccc3NS(C)(=O)=O)n2)c(F)c1 [Example 61, 4-((5-chloro-4-((2-(methylsulfonamido)phenyl)amino)pyrimidin-2-yl)amino)-N-ethyl-3-fluorobenzamide], which IC50 (JAK2) is on record?
The IC50 was 1000 to 10000 nM.

What about the IC50 (JAK3) of the same compound?
Its IC50 is under 100 nM.

What does the source list for CS(=O)(=O)Nc1ccccc1Nc1nc(Nc2ccc(N3CCOCC3)cc2F)ncc1F [Example 2, N-(2-(5-fluoro-2-(2-fluoro-4-morpholinophenylamino)pyrimidin-4-ylamino)phenyl)methanesulfonamide]?
IC50 (JAK2): > 10000 nM; IC50 (JAK3): 100 to 1000 nM

With CC(C)NC(=O)c1ccc(F)c(Nc2ncc(Cl)c(Nc3ccccc3NS(C)(=O)=O)n2)c1 [Example 16] as the compound, how does the IC50 (JAK3) read?
The IC50 was under 100 nM.

With CS(=O)(=O)Nc1ccccc1Nc1nc(Nc2cc(C(=O)NC3CC3)ccc2F)ncc1Cl [Example 15] as the compound, how does the IC50 (JAK3) read?
Its IC50 is under 100 nM.
